In ChEMBL document CHEMBL1201862, “PubChem BioAssay data set” (2004):
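Five concentrations, 48 hours, 96-well plates. GI50 = concentration required for 50% inhibition of growth.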 Active and inactive are the calls of the source. No stated cut-off is given here; in the data, active = GI50 up to about 1.1 µM and inactive = higher.

Assays:
Assay in all cases: DTP human tumour cell line panel, 48 h
[1] = test system: HOP-92
[2] = test system: NCI-H226
[3] = test system: COLO 205
[4] = test system: MDA-MB-435
[5] = test system: OVCAR-5
[6] = test system: HCT-15
[7] = test system: NCI-H460
[8] = test system: CAKI-1
[9] = test system: UACC-62
[10] = test system: SF-295
[11] = test system: SK-MEL-5
[12] = test system: SW-620
[13] = test system: KM12
[14] = test system: PC-3
[15] = test system: HCT-116
[16] = test system: BT-549
[17] = test system: MDA-N
[18] = test system: SR
[19] = test system: M14
[20] = test system: RXF 393
[21] = test system: EKVX
[22] = test system: Hs-578T
[23] = test system: SK-MEL-2
[24] = test system: MOLT-4
[25] = test system: MDA-MB-231
[26] = test system: HL-60
[27] = test system: OVCAR-4
[28] = test system: SF-268
[29] = test system: SK-OV-3
[30] = test system: A498
[31] = test system: NCI-H522
[32] = test system: IGROV-1
[33] = test system: RPMI-8226
[34] = test system: TK-10
[35] = test system: SN12C
[36] = test system: SF-539
[37] = test system: T47D
[38] = test system: HT-29
[39] = test system: U-251
[40] = test system: SNB-75
[41] = test system: OVCAR-8
[42] = test system: MCF7
[43] = test system: ACHN
[44] = test system: NCI/ADR-RES
[45] = test system: SNB-19
[46] = test system: UO-31
[47] = test system: NCI-H23
[48] = test system: 786-0
[49] = test system: DU-145
[50] = test system: LOX IMVI
[51] = test system: OVCAR-3
[52] = test system: A549
[53] = test system: UACC-257
[54] = test system: CCRF-CEM
[55] = test system: Malme-3M
[56] = test system: K562
[57] = test system: SK-MEL-28
[58] = test system: HOP-62

Measured: GI50

CC(=O)Nc1ncc2c(n1)-c1ccccc1OC2
inactive: [1] > 100 µM | [2] > 100 µM | [3] > 100 µM | [4] > 100 µM | [5] > 100 µM | [7] > 100 µM | [8] > 100 µM | [9] > 100 µM | [10] > 100 µM | [11] > 100 µM | [12] > 100 µM | [13] > 100 µM | [14] > 100 µM | [15] > 100 µM | [16] > 100 µM | [17] > 100 µM | [18] > 100 µM | [19] > 100 µM | [20] > 100 µM | [21] > 100 µM | [22] 19.5 µM | [23] > 100 µM | [24] > 100 µM | [25] > 100 µM | [26] > 100 µM | [27] > 100 µM | [28] 80.7 µM | [29] > 100 µM | [30] > 100 µM | [31] > 100 µM | [32] > 100 µM | [33] > 100 µM | [34] > 100 µM | [35] > 100 µM | [36] > 100 µM | [37] > 100 µM | [38] > 100 µM | [39] > 100 µM | [40] 65.2 µM | [41] > 100 µM | [42] > 100 µM | [43] 54.3 µM | [44] > 100 µM | [45] > 100 µM | [46] > 100 µM | [47] > 100 µM | [48] 65.9 µM | [49] > 100 µM | [50] > 100 µM | [51] > 100 µM | [52] > 100 µM | [53] > 100 µM | [54] > 100 µM
> 100 µM: [6]

Nc1cc([N+](=O)[O-])ccc1C(=O)N1CCC[C@H]1CO
> 100 µM: [6]
inactive: [1] > 100 µM | [2] > 100 µM | [3] > 100 µM | [4] > 100 µM | [7] > 100 µM | [8] > 100 µM | [9] > 100 µM | [10] > 100 µM | [12] > 100 µM | [13] > 100 µM | [14] > 100 µM | [15] > 100 µM | [16] > 100 µM | [17] > 100 µM | [18] > 100 µM | [20] > 100 µM | [21] > 100 µM | [55] > 100 µM | [22] 64.1 µM | [23] > 100 µM | [24] > 100 µM | [25] > 100 µM | [56] > 100 µM | [57] > 100 µM | [26] > 100 µM | [27] > 100 µM | [28] > 100 µM | [29] > 100 µM | [30] > 100 µM | [31] > 100 µM | [32] > 100 µM | [33] > 100 µM | [34] > 100 µM | [35] > 100 µM | [36] > 100 µM | [37] 90.4 µM | [38] > 100 µM | [39] > 100 µM | [40] > 100 µM | [41] > 100 µM | [42] > 100 µM | [43] > 100 µM | [44] > 100 µM | [45] > 100 µM | [46] > 100 µM | [47] > 100 µM | [48] > 100 µM | [49] > 100 µM | [50] > 100 µM | [52] > 100 µM | [53] > 100 µM | [54] > 100 µM

OC1C=C2C3CN(Cc4cc5c(cc43)OCO5)[C@H]2C[C@@H]1O (stereo not given in full)
inactive: [1] 5.31 µM | [2] > 100 µM | [3] 3.78 µM | [4] 3.94 µM | [5] 8.39 µM | [7] 2.28 µM | [8] 3.44 µM | [9] 10.6 µM | [10] 7.38 µM | [11] 3.32 µM | [12] 5.57 µM | [13] 3.86 µM | [14] 2.19 µM | [15] 3.3 µM | [16] 2.13 µM | [17] 3.89 µM | [18] 2.94 µM | [19] 4.22 µM | [20] 2.54 µM | [21] 4.36 µM | [55] 7.23 µM | [22] 26.3 µM | [23] 3.2 µM | [24] 4.29 µM | [25] 18.1 µM | [56] 4.31 µM | [57] 11.5 µM | [26] 2.61 µM | [27] 3.07 µM | [28] 7.28 µM | [29] 3.82 µM | [30] 6.87 µM | [31] 7.28 µM | [32] 4.02 µM | [33] 6.93 µM | [34] 4.13 µM | [35] 5.12 µM | [36] 16.9 µM | [37] 1.16 µM | [38] 3.69 µM | [39] 4.86 µM | [41] 5.04 µM | [42] 2.96 µM | [43] 2.65 µM | [44] 15.7 µM | [45] 4.62 µM | [46] 6.3 µM | [58] 6.84 µM | [47] 5.96 µM | [48] 4.12 µM | [49] 2.64 µM | [50] 4.06 µM | [51] 7.13 µM | [52] 3.74 µM | [53] 2.07 µM | [54] 2.34 µM
4.33 µM: [6]
active: [40] 0.794 µM
